The record followed here is ChEMBL document CHEMBL1150911, “New ceramide from marine sponge Haliclona koremella and related compounds as antifouling substances against macroalgae” (J Nat Prod, 1998).

The test system of data set [1] is Ulva. Kind of data set: Toxicity against Ulva conglobata at 50 ppm. The data set is classed as organism-based. The settings on record: in vivo.
Data set [2] has as its system Ulva. Kind of data set: Antifouling activity against Ulva conglobata spores assessed as germination and attachment rate at 1 ppm. The data set is classed as functional.
Data set [3] deals with Ulva. Kind of data set: Antifouling activity against Ulva conglobata spores assessed as germination and attachment rate at 5 ppm. The data set is classed as functional.
Data set [4] relates to Brachiomonas submarina. Kind of data set: Antimicrobial activity against […] at 5 ppm. The data set is classed as functional, organism-based.
The test system of a further data set is Prorocentrum micans. Kind of data set: Antimicrobial activity against Prorocentrum micans at 5 ppm. The data set is classed as functional, organism-based.
Another data set concerns Skeletonema costatum. The experiment in a line: Antimicrobial activity against Skeletonema costatum at 5 ppm. The data set is classed as functional, organism-based.
In data set [5] the test system is Anagnostidinema amphibium. Kind of data set: Antimicrobial activity against Oscillatoria amphibia at 5 ppm. The data set is classed as functional, organism-based.
Data set [6] has as its system Brachiomonas submarina. Kind of data set: Antimicrobial activity against […] at 1 ppm. The data set is classed as functional, organism-based.
Data set [7] has as its system Anagnostidinema amphibium. Kind of data set: Antimicrobial activity against Oscillatoria amphibia at 1 ppm. The data set is classed as functional, organism-based.

The source made the active and inactive calls. The calls are words filed in the database; no cut-off is given here.

For `CCCCCCCCCCCCC/C=C/[C@@H](O)[C@H](CO)NC(C)=O`, the Activity entry in the data set with Ulva [1] is on record as “Non-toxic”.
In the case of `CCCCCCCCCCCCC/C=C/[C@@H](O)[C@@H](N)CO` [SPHINGOSINE], the Activity was determined as 15% in the data set on Ulva [2] and 0% in the data set on Ulva [3]. For the same compound, the outcome (in the data set on Brachiomonas submarina [4]; in the data set on Prorocentrum micans; in the data set with Skeletonema costatum; in data set [5]) was Active.
For the compound `CCCCCCCCCCCCC/C=C/[C@@H](O)[C@H](CO)NC(=O)CCCCCCCCCCCCCCC`, in the data set with Ulva [1], the Activity entry is recorded as “Non-toxic”.
On the same count and under the same terms, as for `CCCCCCCCCCCCC/C=C/[C@@H](O)[C@H](CO)NC(=O)CCCCCCC`, the entry is “Non-toxic”.
With `CCCCCCCCCCCCC/C=C/[C@@H](O)[C@H](CO)N(C)C`, the outcome (in the data set with Ulva [3]; with Brachiomonas submarina [4]; in the data set on Prorocentrum micans; in the data set with Skeletonema costatum; in [5]) was Active.
Turning to `CCCCCCCCCCCCC/C=C/[C@@H](O)[C@H](CO)NC(=O)CCCCC`, in the data set with Ulva [1], the Activity entry is recorded as “Non-toxic”.
Still for that read-out and setting: with `CCCCCCCCCCCCCCCCCCCCCC(=O)N[C@@H](CO)[C@H](O)/C=C/CCCCCCCCCCC(C)C` the entry was “Non-toxic”.
In the case of `CCCCCCCCCCCCCCC[C@@H](O)[C@@H](N)CO`, the outcome (with Brachiomonas submarina [6]; with Brachiomonas submarina [4]; with Prorocentrum micans; in [7]; in [5]) was Active.
